Laboratory results published in patent US12213485B2, “Synergistic methods of using benzoxaborole compounds and preservative gases as an antimicrobial for crops” (AGROFRESH INC., priority 2016, dated 2025).

Tests used:
[1] = test system: Botrytis cinerea (BOTRCI) on strawberries; test: In vivo disease severity on wound-inoculated strawberries, benzoxaborole and CO2 chamber treatment
Description: (§1) The following experiments were used to determine synergy between benzoxaborole Compounds A, B, and/or C and preservative gases, such as carbon dioxide (CO2) and sulfur dioxide (SO2). Specific rates or any other unique conditions are noted within the corresponding results tables. Each experiment comprised an air-tight 36 liter (L) chamber (Fisher Scientific, P/N: 08-642-23C), fitted with a bulkhead septum port (Swagelok, P/N: SS-400-61, Solon, OH) used for treatment delivery, as well as for monitoring (using needle extraction) carbon dioxide (CO2), sulfur dioxide (SO2), oxygen (O2) or other headspace samples. A variable speed fan (Thermaltake, Mobile Fan II, P/N: A1888, Taipei City, Taiwan) set to low was also used to circulate the headspace atmosphere.
For in vivo experiments, eight strawberry fruits per repetition were surface sterilized with a 70% ethanol solution. After sterilization, the strawberries were rinsed twice with deionized water. Each strawberry fruit was wounded using a T15 screwdriver tip to a uniform depth of eight mm (8 mm). Each fruit wound was inoculated with 20 μL of 1×10^5 spores/ml pathogen spore suspension of B. cinerea or M. piriformis. The strawberries were then placed with the stem facing downwards inside a 1-pound strawberry clamshell.
(§2) For treatment, the inoculated agar plates and clamshells containing fruits (e.g., strawberries and grapes) were placed inside a 36 L experimental chamber unit, which was then sealed prior to commencement of compound treatments. The chamber remained sealed throughout the duration of the experiment except for addition of treatment to the chamber, and post-treatment ventilation.
(§3) Benzoxaborole Compound A or Compound B was dissolved in acetone and dispensed onto a 60 mm Whatman #1 filter paper disk using a pipette. The acetone was permitted to evaporate for five minutes before the disk was placed on a watch glass in each chamber.
(§4) A 12% CO2 headspace treatment was then established in the chamber by permitting 10 grams (g) of crushed dry ice placed in a weigh boat in the chamber to evaporate in the sealed chamber. However, the bulkhead port of the chamber was loosened to permit the release of internal pressure. Optionally, a fan was used during the initial hours of treatment (i.e., up to about 6 hours of treatment) to ensure uniform treatment exposure of fruits and plates.
(§5) Untreated controls and CO2 treated chambers contained an acetone-treated disk with similar evaporation for five minutes. CO2 and O2 levels in the chamber were monitored using a handheld gas detector (Dansensor Checkpoint II; P/N 600111, Ringsted, Denmark). Temperature and relative humidity were also monitored within the chamber using data loggers (Onset HOBO; P/N U12-013, Bourne, MA).
(§6) The chamber for all in vitro and in vivo experiments was held at room temperature (i.e., from about 21° C. to about 23° C.) typically for about 3.5 days (i.e., about 84 hours) of treatment exposure. Chambers were then vented. After an additional 2-3 days with the chamber at room temperature, post-treatment radial growth (in mm) of each in vitro pathogen (see Examples 1-7, Tables 1-7) was measured on the inoculated plates using electronic calipers (Mitutoyo, P/N: CD-6-CX, Aurora, IL). In addition, the point of inoculation on fruits was assessed for indication of in vivo disease incidence (e.g., yes or no) and severity of disease incidence (see Examples 8-16, Tables 8-16). Disease severity was rated on a scale ranging from 0 to 4, where “0” indicated no disease severity, “1” indicated minimal disease severity, “2” indicated medium disease severity, “3” indicated high disease severity, and “4” indicated exceptionally high disease severity. […]

[2] = test system: Botrytis cinerea (BOTRCI) on table grapes; test: In vivo disease severity on wound-inoculated table grapes, benzoxaborole and CO2 chamber treatment
Description: as §1
(§7) Similarly, table grape fruits were also tested in vivo. More specifically, 16-20 table grapes per repetition were washed and inoculated with pathogens (as described above for the strawberries). However, an ethanol-sterilized push pin, rather than a T15 screwdriver, was used to wound the stem-end of the grapes. The grapes were inoculated in the wound, and then arranged inside a 1-pint clamshell.
as §2, §3, §4, §5, §6

[3] = test system: Penicillium expansum (PENIEX) on table grapes; test: as above
Description: as §1, §7, §2, §3, §4, §5, §6

OB1OCc2cc(F)ccc21 [Compound A] was tested. Which “Colby Calculation” value ([1]; Table 8, compound 0.14 mg/L + 12% CO2, Colby equation E=x+y−x*y/100) did it give?
Its value is 176.2.

What about the “Growth (Severity, 0 to 4) Cmpd + 12% CO2” value ([1]; Table 8, compound 0.14 mg/L + 12% CO2, evaluated 2 days after treatment, 4 replicates, fan first 6 hours, >90% R.H.) of the same compound?
Its value is 0.4.

What about the “Growth (Severity, 0 to 4) Cmpd” value ([1]; Table 8, compound alone 0.14 mg/L, evaluated 2 days after treatment, 4 replicates, fan first 6 hours, >90% R.H.) of the same compound?
Its value is 2.1.

What about the “Colby Calculation” value ([1]; Table 9, compound 0.14 mg/L + 12% CO2, Colby equation E=x+y−x*y/100) of the same compound?
The value was 107.6.

What about the “Growth (Severity, 0 to 4) Cmpd + 12% CO2” value ([1]; Table 9, compound 0.14 mg/L + 12% CO2, evaluated 3 days after treatment, fan first 6 hours, >90% R.H.) of the same compound?
Its value is 0.8.

And the “Growth (Severity, 0 to 4) Cmpd” value ([1]; Table 9, compound alone 0.14 mg/L, evaluated 3 days after treatment, fan first 6 hours, >90% R.H.)?
Its value is 1.1.

And the “Colby Calculation” value ([1]; Table 11, compound 0.14 mg/L + 12% CO2, Colby equation E=x+y−x*y/100)?
The value was 109.0.

What about the “Growth (Severity, 0 to 4) Cmpd + 12% CO2” value ([1]; Table 11, compound 0.14 mg/L + 12% CO2, evaluated 2 days after treatment, fan first 6 hours, >90% R.H.) of the same compound?
The value was 0.8.

What about the “Growth (Severity, 0 to 4) Cmpd” value ([1]; Table 11, compound alone 0.14 mg/L, evaluated 2 days after treatment, fan first 6 hours, >90% R.H.) of the same compound?
Its value is 1.4.

And the “Colby Calculation” value ([1]; Table 12, compound 0.14 mg/L + 12% CO2, Colby equation E=x+y−x*y/100)?
Its value is 107.9.

What about the “Growth (Severity, 0 to 4) Cmpd + 12% CO2” value ([1]; Table 12, compound 0.14 mg/L + 12% CO2, evaluated 2 days after treatment, fan first 6 hours, >90% R.H.) of the same compound?
Its value is 0.4.

What about the “Growth (Severity, 0 to 4) Cmpd” value ([1]; Table 12, compound alone 0.14 mg/L, evaluated 2 days after treatment, fan first 6 hours, >90% R.H.) of the same compound?
Its value is 0.7.

What about the “Colby Calculation” value ([1]; Table 13, compound 0.14 mg/L + 12% CO2, Colby equation E=x+y−x*y/100) of the same compound?
The value was 163.4.

And the “Growth (Severity, 0 to 4) Cmpd + 12% CO2” value ([1]; Table 13, compound 0.14 mg/L + 12% CO2, evaluated 3 days after treatment, fan run continuously)?
Its value is 1.4.

And the “Growth (Severity, 0 to 4) Cmpd” value ([1]; Table 13, compound alone 0.14 mg/L, evaluated 3 days after treatment, fan run continuously)?
The value was 2.4.

And the “Colby Calculation” value ([1]; Table 14, compound 0.0044 mg/L + 12% CO2, Colby equation E=x+y−x*y/100)?
The value was 114.8.

What about the “Growth (Severity, 0 to 4) Cmpd + 12% CO2” value ([1]; Table 14, compound 0.0044 mg/L + 12% CO2, evaluated 3 days after treatment, fan continuous) of the same compound?
The value was 3.2.

What about the “Colby Calculation” value ([1]; Table 14, compound 0.0088 mg/L + 12% CO2, Colby equation E=x+y−x*y/100) of the same compound?
Its value is 502.5.

What about the “Growth (Severity, 0 to 4) Cmpd + 12% CO2” value ([1]; Table 14, compound 0.0088 mg/L + 12% CO2, evaluated 3 days after treatment, fan continuous) of the same compound?
The value was 0.6.

And the “Growth (Severity, 0 to 4) Cmpd” value ([1]; Table 14, compound alone 0.0044 mg/L, evaluated 3 days after treatment, fan continuous)?
Its value is 3.4.

And the “Growth (Severity, 0 to 4) Cmpd” value ([1]; Table 14, compound alone 0.0088 mg/L, evaluated 3 days after treatment, fan continuous)?
The value was 3.3.

And the “Colby Calculation” value ([2]; Table 15, compound 0.035 mg/L + 12% CO2, Colby equation E=x+y−x*y/100)?
Its value is 115.2.

And the “Growth (Severity, 0 to 4) Cmpd + 12% CO2” value ([2]; Table 15, compound 0.035 mg/L + 12% CO2, evaluated 1 day after treatment, fan continuous)?
Its value is 0.7.

What about the “Growth (Severity, 0 to 4) Cmpd” value ([2]; Table 15, compound alone 0.035 mg/L, evaluated 1 day after treatment, fan continuous) of the same compound?
Its value is 0.9.

What about the “Colby Calculation” value ([3]; Table 16, compound 0.035 mg/L + 12% CO2, Colby equation E=x+y−x*y/100) of the same compound?
The value was 108.2.

And the “Growth (Severity, 0 to 4) Cmpd + 12% CO2” value ([3]; Table 16, compound 0.035 mg/L + 12% CO2, evaluated 1 day after treatment, fan continuous)?
Its value is 1.3.

And the “Growth (Severity, 0 to 4) Cmpd” value ([3]; Table 16, compound alone 0.035 mg/L, evaluated 1 day after treatment, fan continuous)?
Its value is 1.8.
